{"source": "paper PMC10101016", "about": "“The Photoactive Photosynthetic Reaction Center of a Rhodobacter sphaeroides Mutant Lacking 3-Vinyl (Bacterio)Chlorophyllide a Hydratase Contains 3-Vinyl Bacteriochlorophyll a” (Microbiology Spectrum, 2023)", "molecular_target": "T1, reaction center (WT-RC, V-RC) (Cereibacter sphaeroides, UniProt Q3J1A5+Q3J1A6)", "T1 construct": "gene pufL", "note": "Like-named read-outs stand apart in the source and are kept apart here.", "data": [{"smiles": "COC(C)(C)C/C=C/C(C)=C/C=C/C(C)=C/C=C/C(C)=C/C=C/C=C(C)/C=C/C=C(\\C)CC/C=C(\\C)CCC=C(C)C", "note": "[SE]", "values": [{"measurement": "pigment extraction and HPLC of purified RC, absorption spectrum", "setting": "WT-RC and V-RC, photoheterotrophically grown cells", "value": "except for the presence of spheroidene (SE), which reflects the culture conditions"}]}, {"smiles": "COC(C)(C)C(=O)/C=C/C(C)=C/C=C/C(C)=C/C=C/C(C)=C/C=C/C=C(C)/C=C/C=C(\\C)CC/C=C(\\C)CCC=C(C)C", "note": "[SO]", "values": [{"measurement": "pigment extraction and HPLC of purified RC, absorption spectrum", "setting": "WT-RC and V-RC, semiaerobically grown cells", "value": "two Bpheo a molecules, and one spheroidenone (SO) molecule"}]}, {"smiles": "C=Cc1c(C)c2cc3nc(c4c5[nH]c(cc6nc(cc1[nH]2)[C@H](C)[C@H]6CC)c(C)c5C(=O)[C@@H]4C(=O)OC)[C@@H](CCC(=O)OC/C=C(\\C)CCC[C@H](C)CCC[C@H](C)CCCC(C)C)[C@@H]3C", "note": "[3V-Bpheo a]", "values": [{"measurement": "pigment extraction and HPLC of purified RC, absorption spectrum", "setting": "V-RC from BFcfh-puhA, H-sites", "value": "The V-RC was estimated to contain four 3V-Bchl a molecules, two 3V-Bpheo a molecules"}]}]}
